Like-named read-outs stand apart in the source and are kept apart here.
Tests used:
EA.hy926 cells [1] = assay: Matrigel tube disruption assay; assay type: cell-based, human; conditions: EA.hy926 on Matrigel, 24 h of treatment
Protocol: The tube formation assay was performed in 96-well plates coated with 40 µL BD Matrigel™ (basement membrane matrix), following the manufacturer’s instruction (BD Biosciences). A total of 2 × 10^4 EA.hy926 cells was re-suspended in growth medium and added to each well in a final volume of 100 µL. Tube formation was visualized directly using a light microscope. Images were captured using a phase-contrast microscope and quantitation was performed using the WimTube application of the Wimasis online image analysis platform (https://www.wimasis.com/en/products/13/WimTube; accessed on 1 June 2021).

MDA-MB-231 cells = assay: MTT cytotoxicity assay, MDA-MB-231; assay type: cell-based, human
Protocol: (§1) All tested compounds were dissolved in DMSO at 25 mM initial concentration and diluted with medium to obtain the working concentrations (0.01 nM–250 µM). Serial drug dilutions were prepared in medium immediately before each experiment. The DMSO working concentration in the medium was […]. For the MTT assay, cells were seeded into 96-well microtitre plates at a density of 1 × 10^4 in 100 µL complete medium per well. They were further incubated for 24 h, followed by treatment with CA-4 analogs up to 72 h. Cell viability was determined using the MTT assay. Ten µL of MTT solution (5 mg/mL) was added to each well and further incubated for 3 h at 37 °C. To dissolve the formazan product, 100 µL/well of 99.5% isopropanol was added. Cell viability was determined by measuring absorbance at 550/630 nm using a DTX880 plate reader (Beckman Coulter, USA). Results, expressed as concentrations that inhibit 20% (IC20), 50% (IC50), and 80% (IC80) of cell growth, were calculated using GraphPad Prism 8.0.1.
(§2) Table S 3.1. Description of eukaryotic cell lines used for MTT assay. […]
(§3) Kindly provided 3.1 g/L Glucose,
(§4) mammary by Prof. Iana DMEM/F12 with
(§5) Breast MDA- gland/breast; derived Tsoneva 10% FBS, 100 U/mL
(§6) MB-231 h from metastatic site: (IBPhBME – penicillin, 100 U/mL
(§7) pleural effusion; BAS) streptomycin (Lonza). […]

EA.hy926 cells [2] = assay: Clonogenic survival assay; assay type: cell-based, human; conditions: 72 h treatment + 6 days recovery
Protocol: EA.hy926 cells were seeded at 300 cells/well on a 6-well plate and incubated for 24 h. The cells were treated with different concentrations of test compounds for 72 h. After six additional days of growth in a fresh medium to form visible colonies, cells were washed with phosphate-buffered saline (PBS, pH 7.4) and stained with crystal violet (0.5%, w/v) in 6% glutaraldehyde. After 30 min of incubation, the plates were washed with tap water, dried, photographed, and analyzed using ImageJ [79]. Raw data were normalized to the corresponding DMSO control for each independent experiment. After normalization, statistically significant differences for colony-forming efficiency (CFE) values versus […] were calculated.

α,β-tubulin = assay: In vitro quantification of polymeric vs. soluble tubulin fractions in EA.hy926 cells; assay type: cell-based, human; conditions: for soluble vs. polymerized tubulin ratio: EA.hy926, 1 µM, 6 h, DMSO control 2.33 ± 0.14
Protocol: To assess the early effects on the microtubule cytoskeleton in vitro, EA.hy926 cells were cultured for 24 h in 6-cm dishes (3 × 10^5 cells). They were exposed to […] (control), 1 μM CA-4, paclitaxel, or increasing concentrations of 26Z (50, 100, 250, 2500, 10,000 nM) for 6 h. Cells were washed with PBS and lysed directly in the dishes with hypotonic lysis buffer (20 mM Tris-HCl, 1 mM MgCl2, 2 mM EGTA, 0.5% Triton X-100, glycerol 10%, pH 6.8), supplemented with protease inhibitors (2 μg/mL leupeptin, 2 μg/mL pepstatin, 0.4 mM Na vanadate, 0.5 mM PMSF, 1 mM DTT), for 3 min at 30 °C. The soluble fraction was immediately collected, mixed with 5× sample buffer, and boiled at 95 °C for 5 min. The polymerized fraction was collected directly from the culture dish following 10 min of incubation at room temperature with 1× sample buffer.
For the concentration-dependent assay, the cells were harvested by scraping and centrifuged at 1000 g for 5 min, and then lysed with the hypotonic cell lysis buffer for 10 min at room temperature. Tubulin fractions were obtained by centrifugation at 12,000 × g for 10 min.
Equal volumes of the samples were subjected to 10% SDS-PAGE followed by western blotting. Detection of β-tubulin content was accomplished with an anti-β-tubulin mouse monoclonal antibody (sc-101527, Santa Cruz Biotechnology).

MCF-7 cells = assay: MTT cytotoxicity assay, MCF-7; assay type: cell-based, human
Protocol: as §1, §2, §3, §4, §5, §6, §7

[3] = tested on: colchicine binding site of β-tubulin; assay: Colchicine-binding site assay (EBI competition) in EA.hy926 cells; assay type: cell-based, human; conditions: then 100 µM EBI 2 h, Western blot
Protocol: N,N′-ethylene-bis(iodoacetamide) (abcam, ab144980) was dissolved in DMSO to a final concentration of 50 mM. EA.hy926 cells were seeded at density of 1 × 10^5 cells/mL and incubated overnight. […] Cells were lysed with Laemmli buffer and subjected to Western blot analysis for β-tubulin [66, 67]. The detailed Western blot method is as shown above.

EA.hy926 cells [4] = assay: In vitro cell migration (wound-healing) assay; assay type: cell-based, human; conditions: 24 h
Protocol: A total of 3 × 10^5 EA.hy926 cells were seeded in a 12-well plate and grown close to the confluence. The cell monolayer was gently scraped with a P200 pipette tip, creating a wound area around 1-mm wide. Cells were washed twice with fresh medium and treated with test compounds diluted in growth media to the corresponding sub-toxic concentrations. Images were acquired at 0 and 24 h following treatment. After incubation for 24 h, the scratch wound width was measured and recorded, and then compared with the initial scratch wound width at 0 h. Using the ImageJ image processing program (ImageJ150-WIN-Java8), the size of the denuded area in pixels was determined at each time point from the digital images.

HT-29 cells = assay: MTT cytotoxicity assay, HT-29; assay type: cell-based, human; conditions: for IC50: Homo sapiens
Protocol: as §1, §2
HT-29 h colon, colorectal Radostina adenocarcinoma Alexandrova 3.1 g/L D-Glucose […]
colon, colon Kindly provided U/mL streptomycin

[5] = tested on: rhodamine-labeled α,β-tubulin; assay: Ex vivo rhodamine-tubulin polymerization (fluorescence microscopy); conditions: 20 μM, 37 °C, 45 min
Protocol: TAMRA-Tubulin (TL590M, Cytoskeleton) diluted in GTB buffer (PEM, 10% glycerol, 1 mM GTP) was mixed with unlabeled α,β-tubulin (T240, Cytoskeleton) at a ratio of 1:3 (v/v) to a concentration of 4.0 mg/mL. […] Samples were then centrifuged for 20 min at 30,000× g. The pellets were diluted in 6 µL PEM buffer, containing 1 mM GTP and 0.5% glutaraldehyde, mixed with anti-fade mounting media (P36934, Invitrogen, Eugene, USA), and examined under a confocal LSM 980 Airyscan microscope (Carl Zeiss AG, Oberkochen, Germany).

Row | SMILES | decrease of branching points (EA.hy926 cells [1]; equitoxic IC50 concentration) | reduction of loop numbers (EA.hy926 cells [1]; equitoxic IC50 concentration) | Cytostatic activity (% viable cells) (MDA-MB-231 cells; MDA-MB-231 cells, 72 h, MTT) | inhibition at 0.001 µM (EA.hy926 cells [2]; Homo sapiens, EA.hy 926, EA.hy926, 1 nM, read-out: inhibition of endothelial cell colony formation) | soluble vs. polymerized tubulin ratio (α,β-tubulin) | Cytostatic activity (% viable cells) (MCF-7 cells; MCF-7 cells, 72 h, MTT, in the concentration range studied) | tubulin EBI-adduct formation ([3]; EA.hy926, 10 μM compound 2 h) | remaining mean wound opened area (EA.hy926 cells [4]; EA.hy926, 1 nM) | IC50 (HT-29 cells; HT-29 cells, 72 h, MTT, read-out: IC50) | fluorescent microtubule fiber formation [5] | reduction in cumulative tube length (EA.hy926 cells [1]; IC50 concentration, compared with time 0) | IC50 (MDA-MB-231 cells; Homo sapiens, MDA-MB-231, 72 h) | decrease in colony number (EA.hy926 cells [2]; EA.hy926, 250 nM) | reduction in colony formation (EA.hy926 cells [2]; EA.hy926, 2.5, 10 and 25 µM) | concentration above which the depolymerizing effect is clearly visible (α,β-tubulin; EA.hy926, 6 h, 0.01–10 μM) | IC50 (MCF-7 cells; Homo sapiens, MCF7, 72 h) | tubulin EBI-adduct formation ([3]; EA.hy926, 25 µM compound 2 h) | remaining mean wound opened area (EA.hy926 cells [4]; EA.hy926, 50 nM) | greater cytotoxic effect compared to CA-4 (HT-29 cells; HT-29 cells, 72 h) | IC50 (HT-29 cells; HT-29, 72 h)
1 | COc1ccc(/C=C\c2cc(OC)c(OC)c(OC)c2)cc1O [CA-4, Combretastatin A-4] | 50% | 56 ± 3% | 55% | 80% | 3.3 ± 0.61 | 40% | inhibited | 24.4% | 2.16 ± 0.23 µM | blocked the process of fiber formation |  |  |  |  |  |  |  |  |  | 
2 | COc1cc(/C=C\c2ccc3c(c2)sc(=O)n3C)cc(OC)c1OC [Compound 26Z, (Z)-3-methyl-6-(3,4,5-trimethoxystyryl)-2(3H)-benzothiazolone] | 63% |  |  |  | 2.74 ± 0.43 |  |  |  |  | blocked the process of fiber formation | ~ 70% | 1.35 ± 0.42 µM | 90% | about 100% | higher than 0.05 μM | 2.42 ± 0.48 µM | inhibited | 49% | more than 250 times | 0.008 ± 0.001 µM
